Results on four molecules are retold here after patent US20240067693A1, “POLYPEPTIDES AND USES THEREOF” (MEDIMMUNE LIMITED, priority 2020, published 2024).

As usually defined, the EC50 is the concentration at which the effect is half-maximal.

Numbered stars: 1 amine (or outer) side, 2 acyl side, 3 side chain; on linkers, the order of the positions; unused ones are H or OH. Bridge positions count the residues as written; N and C are the ends. Square brackets hold non-standard residues; d marks the D form. Side chains are listed from the residue outwards. Peptide text beside a SMILES is read from it. * marks the point of attachment. C18 diacid = O=C(O)CCCCCCCCCCCCCCCCC(=O)*; γGlu = O=C(O)[C@H](CCC(=O)[*:2])N[*:1]; Dab = NCC[C@H](N)C(=O)O; Aib = CC(C)(N)C(=O)O

In test [1] the target is T1, human amylin receptor (calcitonin receptor co-expressed with receptor activity modifying protein, RAMP3) (hAMYR3) (Homo sapiens, UniProt O60896+P30988).
T1 construct: expressed in transfected cells
T1 sequence (P30988 25-474): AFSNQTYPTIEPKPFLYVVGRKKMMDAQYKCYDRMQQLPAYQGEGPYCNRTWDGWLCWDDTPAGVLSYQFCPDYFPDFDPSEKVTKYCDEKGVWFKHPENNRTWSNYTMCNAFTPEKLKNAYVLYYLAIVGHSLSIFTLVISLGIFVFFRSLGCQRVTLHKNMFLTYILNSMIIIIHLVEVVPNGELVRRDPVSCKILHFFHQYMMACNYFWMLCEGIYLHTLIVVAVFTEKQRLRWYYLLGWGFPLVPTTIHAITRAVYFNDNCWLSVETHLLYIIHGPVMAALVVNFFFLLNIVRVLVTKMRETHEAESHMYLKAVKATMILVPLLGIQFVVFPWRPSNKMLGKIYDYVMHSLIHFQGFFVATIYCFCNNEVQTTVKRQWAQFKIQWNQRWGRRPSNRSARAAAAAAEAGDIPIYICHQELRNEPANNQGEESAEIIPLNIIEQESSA
T1 sequence (O60896 24-148 partner): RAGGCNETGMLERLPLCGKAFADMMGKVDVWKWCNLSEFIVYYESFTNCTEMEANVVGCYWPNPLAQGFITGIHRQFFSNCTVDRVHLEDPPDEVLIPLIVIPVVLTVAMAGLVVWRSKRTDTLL
Briefly: cAMP production in 1321N1 cells with stable recombinant expression of human amylin receptor (hAMYR3). It is filed as cell-based. The following applies: for Ratio (selectivity hAMYR vs hCTR, ratio of EC50 values at the two receptors): EC50 hCTR / EC50 hAMYR3; for EC50: cAMP, 1321N1 cells, assay buffer with 0.1% BSA, read-out: EC50 (pM) hAMYR3. The method, boiled down:
(§1)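 EC50 values come from 4-parameter logistic fits of HTRF cAMP signal, normalised to maximal calcitonin or amylin effect. Peptides were tested in duplicate for 30 min at RT in IBMX-containing (0.5 mM) BSA/HEPES buffer pH 7.4 on stable 1321N1 (human CTR, AMYR3) or HEK (rat CTR, AMYR3) lines.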

Test [2] addresses T2, human calcitonin receptor (hCTR) (Homo sapiens, UniProt P30988).
T2 construct: expressed in transfected cells
T2 sequence (P30988 25-474): T1 sequence (P30988 25-474)
Briefly: cAMP production in 1321N1 cells with stable recombinant expression of human calcitonin receptor (hCTR). The test is classed as cell-based. The conditions noted are these: cAMP, 1321N1 cells, assay buffer with 0.1% BSA; read-out: EC50 (pM) hCTR. The method, boiled down:
as §1
(cAMP levels reflect the balance of adenylyl cyclase and phosphodiesterase activity.)

Regarding `CC[C@H](C)[C@H](NC(=O)[C@@H]1CCCN1C(=O)CNC(=O)[C@H](Cc1ccccc1)NC(=O)[C@H](CC(N)=O)NC(=O)C(C)(C)NC(=O)[C@H](CO)NC(=O)[C@H](CO)NC(=O)[C@H](Cc1c[nH]cn1)NC(=O)[C@@H](NC(=O)[C@H](CC(C)C)NC(=O)[C@H](Cc1ccccc1)NC(=O)[C@H](CC(N)=O)NC(=O)[C@H](C)NC(=O)[C@H](CC(C)C)NC(=O)[C@H](CCCNC(=N)N)NC(=O)[C@H](CCC(N)=O)NC(=O)[C@@H](NC(=O)[C@H](C)NC(=O)[C@@H]1CSSC[C@H](NC(=O)[C@H](CCCCN)NC(=O)[C@@H](N)CCCCNC(=O)CC[C@H](NC(=O)CCCCCCCCCCCCCCCCC(=O)O)C(=O)O)C(=O)N[C@@H](CC(N)=O)C(=O)N[C@@H]([C@@H](C)O)C(=O)N[C@@H](C)C(=O)N[C@@H]([C@@H](C)O)C(=O)N1)[C@@H](C)O)C(C)C)C(=O)N[C@@H](CC(C)C)C(=O)N1CCC[C@H]1C(=O)N1CCC[C@H]1C(=O)N[C@H](C(=O)N[C@@H](CC(N)=O)C(=O)N[C@H](C(=O)NCC(=O)N[C@@H](CO)C(=O)NC(C)(C)C(=O)N[C@H](C(=O)N[C@@H](Cc1ccc(O)cc1)C(N)=O)[C@@H](C)O)C(C)C)[C@@H](C)O` [Peptide 82, K(γE-C18diacid)K[CNTATC]ATQRLANFLVHSS(Aib)NFGPILPPTNVGS(Aib)TY-amide] (H-K([γGlu-C18 diacid])KCNTATCATQRLANFLVHSS[Aib]NFGPILPPTNVGS[Aib]TY-NH2; disulfide 3-8), in test [1], the “Ratio (selectivity hAMYR vs hCTR, ratio of EC50 values at the two receptors)” value amounted to 8 and the EC50 was 514 pM. The EC50 in test [2] amounted to 4280 pM.
Regarding `CC[C@H](C)[C@H](NC(=O)[C@@H]1CCCN1C(=O)CNC(=O)[C@H](Cc1ccccc1)NC(=O)[C@H](CC(N)=O)NC(=O)C(C)(C)NC(=O)[C@H](CO)NC(=O)[C@H](CO)NC(=O)[C@H](Cc1c[nH]cn1)NC(=O)[C@H](CO)NC(=O)[C@H](CC(C)C)NC(=O)[C@H](Cc1ccccc1)NC(=O)[C@H](CC(N)=O)NC(=O)[C@H](C)NC(=O)[C@H](CC(C)C)NC(=O)[C@H](CCCNC(=N)N)NC(=O)[C@H](CCC(N)=O)NC(=O)[C@@H](NC(=O)[C@H](C)NC(=O)[C@@H]1CSSC[C@H](NC(=O)[C@H](CCCCN)NC(=O)[C@@H](N)CCCCNC(=O)CC[C@H](NC(=O)CCCCCCCCCCCCCCCCC(=O)O)C(=O)O)C(=O)N[C@@H](CC(N)=O)C(=O)N[C@@H]([C@@H](C)O)C(=O)N[C@@H](C)C(=O)N[C@@H]([C@@H](C)O)C(=O)N1)[C@@H](C)O)C(=O)N[C@@H](CC(C)C)C(=O)N1CCC[C@H]1C(=O)N1CCC[C@H]1C(=O)N[C@H](C(=O)N[C@@H](CCCNC(=N)N)C(=O)N[C@H](C(=O)NCC(=O)N[C@@H](CO)C(=O)N[C@@H](CC(N)=O)C(=O)N[C@H](C(=O)N[C@@H](Cc1ccc(O)cc1)C(N)=O)[C@@H](C)O)C(C)C)[C@@H](C)O` [Peptide 52, K(γE-C18diacid)K[CNTATC]ATQRLANFLSHSS(Aib)NFGPILPPTRVGSNTY-amide] (H-K([γGlu-C18 diacid])KCNTATCATQRLANFLSHSS[Aib]NFGPILPPTRVGSNTY-NH2; disulfide 3-8; N-terminus assumed), in test [1], the “Ratio (selectivity hAMYR vs hCTR, ratio of EC50 values at the two receptors)” value was 12 and the EC50 was found to be 89 pM. Further, the EC50 in test [2] stood at 1100 pM.
In the case of `CC[C@H](C)[C@H](NC(=O)[C@H](C)NC(=O)[C@@H]1CCCN1C(=O)[C@H](Cc1ccccc1)NC(=O)[C@H](CC(N)=O)NC(=O)C(C)(C)NC(=O)[C@H](CO)NC(=O)[C@H](CO)NC(=O)[C@H](Cc1c[nH]cn1)NC(=O)[C@@H](NC(=O)[C@H](CC(C)C)NC(=O)[C@H](Cc1ccccc1)NC(=O)[C@H](CC(N)=O)NC(=O)[C@H](C)NC(=O)[C@H](CC(C)C)NC(=O)[C@H](CCCNC(=N)N)NC(=O)[C@H](CCC(N)=O)NC(=O)[C@@H](NC(=O)[C@H](C)NC(=O)[C@@H]1CSSC[C@H](NC(=O)[C@@H](N)CCCCNC(=O)CC[C@H](NC(=O)CC[C@H](NC(=O)CCCCCCCCCCCCCCCCC(=O)O)C(=O)O)C(=O)O)C(=O)N[C@@H](CC(N)=O)C(=O)N[C@@H]([C@@H](C)O)C(=O)N[C@@H](C)C(=O)N[C@@H]([C@@H](C)O)C(=O)N1)[C@@H](C)O)C(C)C)C(=O)N[C@@H](CC(C)C)C(=O)N[C@@H](CO)C(=O)N1CCC[C@H]1C(=O)N[C@H](C(=O)N[C@@H](CC(N)=O)C(=O)N[C@H](C(=O)NCC(=O)N[C@@H](CO)C(=O)N[C@@H](CCN)C(=O)N[C@H](C(=O)N[C@@H](Cc1ccc(O)cc1)C(N)=O)[C@@H](C)O)C(C)C)[C@@H](C)O` [Peptide 124, K(γE-γE-C18diacid)[CNTATC]ATQRLANFLVHSS(Aib)NFPAILSPTNVGS(Dab)TY-amide] (H-K([γGlu-γGlu-C18 diacid])CNTATCATQRLANFLVHSS[Aib]NFPAILSPTNVGS[Dab]TY-NH2; disulfide 2-7; N-terminus assumed), in test [1], the “Ratio (selectivity hAMYR vs hCTR, ratio of EC50 values at the two receptors)” value amounted to 6 and the EC50 was 1130 pM. In test [2], the EC50 was determined as 6630 pM.
Take `CC[C@H](C)[C@H](NC(=O)[C@@H]1CCCN1C(=O)CNC(=O)[C@H](Cc1ccccc1)NC(=O)[C@H](CC(N)=O)NC(=O)[C@H](CC(N)=O)NC(=O)[C@H](CO)NC(=O)[C@H](CO)NC(=O)[C@H](Cc1c[nH]cn1)NC(=O)C(C)(C)NC(=O)[C@H](CC(C)C)NC(=O)[C@H](Cc1ccccc1)NC(=O)[C@H](CC(N)=O)NC(=O)[C@H](C)NC(=O)[C@H](CC(C)C)NC(=O)[C@H](CCCNC(=N)N)NC(=O)[C@H](CCC(N)=O)NC(=O)[C@@H](NC(=O)[C@H](C)NC(=O)[C@@H]1CSSC[C@H](NC(=O)[C@H](CCCCN)NC(=O)[C@@H](N)CCCCNC(=O)CC[C@H](NC(=O)CCCCCCCCCCCCCCCCC(=O)O)C(=O)O)C(=O)N[C@@H](CC(N)=O)C(=O)N[C@@H]([C@@H](C)O)C(=O)N[C@@H](C)C(=O)N[C@@H]([C@@H](C)O)C(=O)N1)[C@@H](C)O)C(=O)N[C@@H](CC(C)C)C(=O)N1CCC[C@H]1C(=O)N1CCC[C@H]1C(=O)N[C@H](C(=O)N[C@@H](CC(N)=O)C(=O)N[C@H](C(=O)NCC(=O)N[C@@H](CO)C(=O)N[C@@H](CCCNC(=N)N)C(=O)N[C@H](C(=O)N[C@@H](Cc1ccc(O)cc1)C(N)=O)[C@@H](C)O)C(C)C)[C@@H](C)O` [Peptide 141] (H-K([γGlu-C18 diacid])KCNTATCATQRLANFL[Aib]HSSNNFGPILPPTNVGSRTY-NH2; disulfide 3-8; N-terminus assumed): in test [1], the “Ratio (selectivity hAMYR vs hCTR, ratio of EC50 values at the two receptors)” value is given as 9.5 and the EC50 stood at 414 pM. The EC50 in test [2] came out at 3950 pM.
